Assay results as given in paper PMC7754465, “Multiparameter Kinetic Analysis for Covalent Fragment Optimization by Using Quantitative Irreversible Tethering (qIT)” (Chembiochem, 2020).

Molecular target: His-Cdk2(F80C,C177A,D145N) (Homo sapiens, UniProt P24941, C177A/D145N/F80C)
Assay: qIT assay with His-Cdk2(F80C,C177A,D145N)
Format: binding
Details: acrylamide 69 0.5 mM, thiol 5 µM
Experimental: site that is normally occupied by the adenosine core of ATP. Indeed, the methyl ester engages in a hydrogen-bonding interaction with the backbone amide of Leu83, mimicking the pyrimidine pharmacophore of ATP, while the acrylamide carbonyl itself is hydrogen bonded to the ε-amine of Lys32.
Next the 57-Cdk2(F80C,C177A) conjugate was prepared and crystallised by heterogeneous microseeding in an analogous manner. This complex diffracted to 2.0 GS H Å […]
Although acrylamide Cdk2(F80C,C177A,D145N) 57 could be O […]
modelled into the electron density map with a cov1.25 alent bond to Cys80, the ligand-binding mode was less clearly defined (Figure 72b). It is postulated that either the ligand binds in N […]
multiple unresolved modes or that the protein was not fully modified such that the ligand 69 […]
clin A2 to form active holoenzymes. The holoenzymes were incubated with peptide substrate, ATP, NADH, PEP, LD and PK Tim e ( h) ! at 37 °C and the absorbance measured over time in clear 384-well plates. Kinase activity is determined from the gradient of Figure the absorbance over time (between 100084. Fluorescence data (normalised against DMSO –3000 s) and normalised relative to pCdk2(WT) = 100% and cyclin A2 only = 0% (n = control) from qIT assay for acrylamide […]
glutathione (5 µM). Vertical error bars represent the standard deviation of fluorogenic thiol quantifications, performed in duplicate. […]

With `C=CC(=O)N1CCN(CC)c2ccccc21` [compound 6] the “k, thiol Cdk2(F80C,C177A,D145N)” value was 0.23 h–1.
